Measurements taken from PMC5920688 (Journal of veterinary pharmacology and therapeutics, 2017).
Entries after “also recorded” stand apart in the source; their conditions may differ.

Legend:
horses [1] = conditions: clinical cases, ref Johnson et al., 1993, Raekallio et al., 1997; cited from earlier work
horses [2] = conditions: 4 mg/kg i.v., ref Toutain et al., 1994; cited from earlier work
[3] = tested on: horses with lipopolysaccharide-induced radiocarpal synovitis; experiment: Pain; format: in vivo; conditions: for Horses qualifying for rescue analgesia if only VAS > 50 at rest had been used: control 5/6; for Proportion of positive-to-negative responses to touch (tactile allodynia): control 1.7; for AUC of AAEP lameness scores compared to control / AUC of visual analog pain scores compared to control: first 12 h and entire 48 h
[4] = Plasma pharmacokinetics of t-TUCB after intravenous administration; format: in vivo, horses; conditions: for AUClast (h*ng/mL)/dose: dose-corrected; for AUClast (h*ng/mL)/dose / Clast (last measured plasma concentration) / Tlast (time of last measured plasma concentration) / λz lower / λz upper: mean ± SEM; for Plasma kinetics (order): preliminary
[5] = tested on: equine soluble epoxide hydrolase (sEH); conditions: ref Guedes et al., 2016, cited from earlier work
[6] = tested on: horses with lipopolysaccharide-induced radiocarpal synovitis; format: in vivo
horses [7] = experiment: Physical exam variables, hematology and serum biochemistry; format: in vivo
[8] = Synovial fluid t-TUCB concentrations after intravenous administration; format: in vivo; conditions: horses, i.v., 1 mg/kg
rats = conditions: doses as low as 0.1 mg/kg, ref Wagner et al., 2013; cited from earlier work
[9] = Thoroughbred, Quarter Horse, Dutch Warmblood (mixed group), plasma, iv, 1 mg/kg
[10] = Thoroughbred, Quarter Horse, Dutch Warmblood, plasma, iv, 0.1 mg/kg
[11] = Thoroughbred, Quarter Horse, Dutch Warmblood, plasma, iv, 0.3 mg/kg
[12] = horses, i.v., 0.1 mg/kg, plasma
[13] = horses, i.v., 0.3 mg/kg, plasma

In the case of `CCCCC1C(=O)N(c2ccccc2)N(c2ccccc2)C1=O` [phenylbutazone], the “Duration of post-surgical analgesia” value (horses [1]) is listed as under 12 h and the “Analgesic effects in carpal Freund's adjuvant arthritis model” value (horses [2]) is listed as “not readily demonstrated; also recorded: could not be demonstrated”.

For `O=C(Nc1ccc(OC(F)(F)F)cc1)N[C@H]1CC[C@H](Oc2ccc(C(=O)O)cc2)CC1` [t-TUCB, trans-4-{4-[3-(4-Trifluoromethoxy-phenyl)-ureido]-cyclohexyloxy}-benzoic acid], the “Horses qualifying for rescue analgesia if only VAS > 50 at rest had been used” value (“Horses qualifying” for short) ([3]; 0.03 mg/kg i.v.) was 5/6, the “Proportion of positive-to-negative responses to touch (tactile allodynia)” value (“Proportion” for short) ([3]; 0.1 mg/kg i.v.) was 0.8 and the “Horses qualifying” value ([3]; 0.1 mg/kg i.v.) was 4/6. The “Proportion” value ([3]; 0.3 mg/kg i.v.) was 1.3, the “Horses qualifying” value ([3]; 0.3 mg/kg i.v.) was 1/4 and the “Proportion” value ([3]; 1 mg/kg i.v.) was 0.2. The “Horses qualifying” value ([3]; 1 mg/kg i.v.) was 2/5, the “AUC of AAEP lameness scores compared to control” value ([3]; 1 mg/kg i.v.) was “significantly lower” and the “AUC of visual analog pain scores compared to control” value ([3]; 1 mg/kg i.v.) was “significantly lower”. For the same molecule, the “AUC of AAEP lameness scores compared to control” value ([3]; 0.1 and 0.3 mg/kg i.v.) was “not the others”, the “AUC of visual analog pain scores compared to control” value ([3]; 0.1 and 0.3 mg/kg i.v.) was “not the others” and the Vd [4, 9] was 0.571 ± 0.104 L/kg. It also gave a clearance [4, 9] of 0.233 mL/min/kg, a half-life [4, 9] of 24 ± 5 h and an AUC(0-inf) [4, 10] of 2000 ± 530 ng·h/mL. The AUC(0-t) [4, 10] was 1610 ± 360 ng·h/mL, the AUC(0-inf) [4, 11] was 6370 ± 526 ng·h/mL and the AUC(0-t) [4, 11] was 5840 ± 488 ng·h/mL. For the same molecule, the AUC(0-t) ([4]; Thoroughbred, Quarter Horse, Dutch Warmblood, plasma, iv, 1 mg/kg) was 50100 ± 5600 ng·h/mL, the “AUClast (h*ng/mL)/dose” value ([4]; horses, i.v., 0.1 mg/kg) was 16066±3595^a h*ng/mL and the “AUClast (h*ng/mL)/dose” value ([4]; horses, i.v., 0.3 mg/kg) was 19467±1625^a h*ng/mL. For the same molecule, the “AUClast (h*ng/mL)/dose” value ([4]; horses, i.v., 1 mg/kg) was 50139±5604^b h*ng/mL, the Plasma concentrations ([4]; horses, i.v., 0.03 mg/kg) was “undetectable or very low” and the “Clast (last measured plasma concentration)” value [4, 12] was 17 ± 5 ng/mL. For the same molecule, the “Tlast (time of last measured plasma concentration)” value (“Tlast” for short) [4, 12] was 38 ± 5 h, the λz lower [4, 12] was 8 ± 4 h and the λz upper [4, 12] was 38 ± 5 h. For the same molecule, the “Clast (last measured plasma concentration)” value [4, 13] was 29 ± 3 ng/mL, the “Tlast” value [4, 13] was 48 ± 0 h and the λz lower [4, 13] was 11 ± 5 h. For the same molecule, the λz upper [4, 13] was 48 ± 0 h, the “Clast (last measured plasma concentration)” value ([4]; horses, i.v., 1 mg/kg, plasma) was 538 ± 76 ng/mL and the “Tlast” value ([4]; horses, i.v., 1 mg/kg, plasma) was 48 ± 0 h. The λz lower ([4]; horses, i.v., 1 mg/kg, plasma) was 14 ± 5 h, the λz upper ([4]; horses, i.v., 1 mg/kg, plasma) was 48 ± 0 h and the “Plasma kinetics (order)” value ([4]; horses, i.v., 0.1 and 0.3 mg/kg) was “linear or first order plasma kinetics”. The “Plasma kinetics (order)” value ([4]; horses, i.v., highest dose (1 mg/kg)) was “may have approached a non-linear or zero order kinetics”, the clearance ([4]; plasma, iv, 0.1 mg/kg) was 1.13 mL/min/kg and the clearance ([4]; plasma, iv, 0.3 mg/kg) was 0.8 mL/min/kg. For the same molecule, the AUC(0-inf) ([4]; plasma, iv, 1 mg/kg) was 71100 ± 5780 ng·h/mL, the clearance ([4]; plasma, iv, 1 mg/kg) was 0.233 mL/min/kg and the half-life ([4]; plasma, iv, 1 mg/kg) was 24 ± 5 h. The “In vitro 95% inhibitory concentration (IC95)” value ([5]; equine sEH) was 0.0964 µg/mL, the “Potency against equine sEH compared to rat sEH” value ([5]; in vitro, Wagner et al., 2013) was “approximately 3 fold” and the “Carpus circumference compared to control” value ([6]; 1 mg/kg i.v., at 36 h) was “reaching statistical significance”. For the same molecule, the “Anti-inflammatory activity (inflammatory cell numbers, joint effusion, protein concentration)” value ([6]; 0.1-1 mg/kg i.v.) was “no important anti-inflammatory effects; also recorded: negligible anti-inflammatory activity”, the “Carpus circumference compared to the remaining treatments” value ([6]; 0.3 and 1 mg/kg i.v.) was “increased slightly less” and the “Adverse effects on physical and laboratory examinations” value (horses [7]; 0.03-1 mg/kg i.v.) was “No adverse effects were observed”. The “Effect of treatment on respiratory rate, heart rate and mean arterial pressure” value (horses [7]; 0.1, 0.3 and 1 mg/kg i.v., after LPS) was “not of treatment”, the “Hematology and serum biochemistry results” value (horses [7]; all treatments (0.03-1 mg/kg i.v.)) was “within the normal laboratory reference range” and the “Synovial fluid concentrations reached” value [8] was “high concentrations”. The “Synovial fluid t-TUCB concentration, inflamed compared to non-inflamed joint” value [8] was “significantly higher” and the “Mechanical hyperalgesia to intra-plantar LPS” value (rats) was “significantly attenuated”.
